Source: patent US10016414B2, “Modulation of ubiquitination of synaptic proteins for the treatment of neurodegenerative and psychiatric disorders” (UNIVERSITY OF MASSACHUSETTS, priority 2010, dated 2018)

Tests used:
[1] = oral gavage, 100 mg/kg once daily; between 1-8 hours after administration (Zhang et al., 2011); cited from earlier work
[2] = system: surface GluA1 (AMPAR) in hippocampal neurons; assay: Aβ-induced AMPAR endocytosis: surface GluA1 in cultured hippocampal neurons; assay type: cell-based, rat; details: for GluA1 surface expression (GluA1 puncta normalized to SV2 puncta and to naïve cultures): 2 hrs, naïve 100%±4%, n=3
Experimental: A. Micrograph showing GluA2 surface expression upon Aβ treatment in the presence or absence of Nutlin-3. Rat hippocampal neurons were cultured, and treated with Aβ or Aβ together with either Nutlin-3 (5 μM) or HLI373 (15 μM) for 2 hours. The final concentration of Aβ was 0.3 ng/mL. Naïve and Nutlin-3 and HLI373 treatments, without Aβ treatment, were used as controls. Surface expression of AMPARs was measured by labeling the cultured neurons in vivo with an antibody to the AMPAR subunit GluA1, followed by confocal microscopy and immunofluorescence quantification by MetaMorph. The number of GluA1 puncta was normalized to SV2 puncta (a presynaptic marker) and to the value in control naïve cultures. […] Scale bar=5 μm. B. Bar graph showing quantification of the percentage of surface GluA1 in response to the various treatment described in A. Results are presented as mean±SEM.
Soluble amyloid beta (Aβ) peptides contribute directly to synapse loss and decreased dendritic spine density and glutamate receptors at the synapse. Moreover, Aβ has been reported to induce AMPAR internalization in cultured neurons. To evaluate the effect of Mdm2 inhibitors on this process, cultured rat hippocampal neurons were treated for 2 hrs with Aβ (or Aβ together with either Nutlin-3 (5 μM) or HLI-373 (15 μM). Aβ can be prepared from 7PA2 Chinese hamster ovary (CHO) cells stably expressing human amyloid precursor protein (APP)751 containing the V717 mutation (Walsh et al., 2005; Shankar et al., 2007; Shankar et al., 2011), and is also available commercially from, e.g., rPeptide (Bogart, G A). The concentration of Aβ in the hippocampal cultures was 0.3 ng/mL. Naïve and Nutlin-3 and HLI-373 treatments were used as controls. Surface expression of AMPARs was measured by labeling the cultured neurons in vivo with an antibody to the AMPAR subunit GluA1, followed by confocal microscopy and immunofluorescence quantification by MetaMorph. The number of GluA1 puncta was normalized to SV2 puncta (a presynaptic marker) and to the value in control naïve cultures (see FIGS. 8A and B).
Minimum inhibitor concentrations of Nutlin-3a or HLI-373, as well as any other Mdm2 inhibitor identified using the screens described supra, can be readily determined by using different ranges of inhibitor concentrations and assessing the effects of the particular concentrations on surface expression of AMPARs. Similar results are expected with other inhibitors of PSD-95 ubiquitination by Mdm2, such as PSD-95 inhibitors.

[3] = target: T1, interaction between PSD-95 and Mdm2 (Mus musculus, UniProt P23804); assay: Mdm2 binding to PSD-95 in acute forebrain slices (Mdm2 immunoprecipitation, PSD-95 Western blot); assay type: cell-based; details: Nutlin-3 5 μM for 30 min, normalized to absence of Nutlin-3
T1 construct: from tissue; host or cells: acute mouse forebrain slices
Experimental: A. Immunoblot showing the interaction between Mdm2 and PSD-95 in the presence or absence of the Mdm2 inhibitor Nutlin-3. Acute mouse forebrain slices were treated with Nutlin-3 (5 μM for 30 min), followed by immunoprecipitation of Mdm2. Immunoprecipitates were subjected to Western blot analysis with anti-PSD-95 and anti-Mdm2 antibodies. IgG: control immunoprecipitation with mouse IgG.
B. A bar graph depicting the proportion of PSD-95 bound to Mdm2 from FIG. 6A, normalized to levels of PSD-95 bound to Mdm2 in the absence of Nutlin-3. There was a 60% decrease in the interaction of PSD-95 with Mdm2.
To test this hypothesis, acute mouse forebrain slices were prepared and subjected to treatment with or without Nutlin-3. The interaction between PSD95 and Mdm2 was assessed by immunoprecipitation of Mdm2, followed by Western blot analysis to assess the extent of PSD-95 binding. Consistent with PSD-95 binding to the same region of Mdm2 as other Mdm2 substrates, Nutlin-3 decreased the interaction between PSD-95 with Mdm2 by 60% (FIGS. 6A and B).

[4] = system: surface GluA2 (AMPAR) in hippocampal neurons; assay: NMDA-induced AMPAR endocytosis: surface GluA2 by antibody feeding in hippocampal cultures; assay type: cell-based, rat; details: inhibitor 5 μM for 30 min before NMDA 100 μM for 3 min, then 15 min; naïve 100%±9.47%; n=3
Experimental: A. Micrograph showing GluA2 surface expression upon NMDA treatment in the presence or absence of Nutlin-3. Cultured hippocampal neurons were subjected to an antibody feeding protocol using an antibody that recognizes an extracellular domain of GluA2. The neurons were subsequently pretreated with Nutlin-3 (5 μM for 30 min) prior to NMDA treatment (100 μM for 3 min), followed by agonist washout. Neurons were incubated for an additional 15 min (with or without Nutlin-3) before immunocytochemical analysis of PSD-95 and surface GluA2 by confocal microscopy.
B. A bar graph depicting the proportion of GluA2 found at the surface of cultured hippocampal neurons upon treatment with or without NMDA, in the presence or absence of Nutlin-3. Results are presented as mean±SEM.
Brief stimulation of NMDARs induces AMPAR endocytosis in cultured neurons (Colledge et al., 2003; Bhattacharyya et al., 2009). To determine whether Nutlin-3a antagonizes NMDA-induced AMPAR endocytosis, measured as loss of surface AMPAR staining, the surface expression of GluA2 (a subunit of AMPARs in rat hippocampal cultures) was assessed. Surface GluA2 were labeled in vivo by an antibody feeding protocol using an antibody that recognizes an extracellular domain of GluA2 (Ehlers, 2000; Lin et al., 2000; Bhattacharyya et al., 2009). Neurons were pretreated with Nutlin-3a (5 μM for 30 min) prior to NMDA treatment. After brief stimulation with NMDA (100 μM for 3 min) and agonist washout, neurons were incubated for an additional 15 min (with or without Nutlin-3a) before immunocytochemical analysis of PSD-95 and surface GluA2 by confocal microscopy under the same settings. Immunostained puncta were quantified using MetaMorph software (3 neurons from 2 coverslips with approximately 450 puncta analyzed/condition) and the number of GluA2 puncta was normalized to the number of PSD-95 puncta.
Naïve and NMDA-stimulated conditions were used as controls. […]

T1 sequence (P23804 whole entry): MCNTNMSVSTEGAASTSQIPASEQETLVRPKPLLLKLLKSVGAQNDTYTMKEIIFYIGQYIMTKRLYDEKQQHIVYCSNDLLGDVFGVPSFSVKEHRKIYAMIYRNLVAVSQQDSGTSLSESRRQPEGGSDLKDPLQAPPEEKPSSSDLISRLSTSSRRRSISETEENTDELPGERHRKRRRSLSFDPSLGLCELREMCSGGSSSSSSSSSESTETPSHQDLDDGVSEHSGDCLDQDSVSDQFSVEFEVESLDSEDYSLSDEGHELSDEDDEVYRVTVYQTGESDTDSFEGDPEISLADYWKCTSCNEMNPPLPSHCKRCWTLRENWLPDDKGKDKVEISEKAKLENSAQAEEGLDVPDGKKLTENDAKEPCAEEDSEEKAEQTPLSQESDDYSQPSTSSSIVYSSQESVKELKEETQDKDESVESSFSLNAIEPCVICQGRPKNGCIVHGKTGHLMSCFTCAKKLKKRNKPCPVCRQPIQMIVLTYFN

| Compound | concentration in brain tissue [1] [nM] | GluA1 surface expression (GluA1 puncta normalized to SV2 puncta and to naïve cultures) ([2]; co-treatment with Aβ 0.3 ng/mL, Nutlin 5 μM, HLI373 15 μM) | decrease in the interaction of PSD-95 with Mdm2 [3] [%] | effect on loss of surface GluA1 induced by Aβ ([2]; Aβ 0.3 ng/mL, 2 hours, Nutlin-3 5 μM, HLI373 15 μM) | GluA1 surface expression (GluA1 puncta normalized to SV2 puncta and to naïve cultures) ([2]; inhibitor alone, without Aβ, Nutlin-3 5 μM, HLI-373 15 μM) | GluA2 surface expression (GluA2 puncta normalized to PSD-95 puncta, versus naïve control) [4] [%] |
| --- | --- | --- | --- | --- | --- | --- |
| COc1ccc(C2=NC(c3ccc(Cl)cc3)C(c3ccc(Cl)cc3)N2C(=O)N2CCNC(=O)C2)c(OC(C)C)c1 (single isomer, unassigned; (-)) [Nutlin-3a, (−)-4-(4,5-bis(4-chlorophenyl)-2-(2-isopropoxy-4-methoxyphenyl)-4,5-dihydro-1H-imidazole-1-carbonyl)piperazin-2-one] | 1000 to 2000 | 152.29%±19.88% | – | – | – | – |
| COc1ccc(C2=N[C@@H](c3ccc(Cl)cc3)[C@@H](c3ccc(Cl)cc3)N2C(=O)N2CCNC(=O)C2)c(OC(C)C)c1 [Nutlin-3] | – | – | 60 | prevented the loss of surface GluA1 induced by Aβ treatment | 90.6%±3.71% | 60.86±3.98 |
